Source: US20080280920A1, “Plasminogen Activator Inhibitor-1 Inhibitors” (priority 2005, published 2008)

Assays:
UO-31 = assay: NCI anticancer screen, UO-31; format: cell-based, human; conditions: Homo sapiens; UO-31, Renal, 48 h
HCC-2998 = assay: NCI anticancer screen, HCC-2998; format: cell-based, human; conditions: Homo sapiens; HCC-2998, Colon, 48 h
A549/ATCC = assay: NCI anticancer screen, A549/ATCC; format: cell-based, human; conditions: Homo sapiens, Non-Small Cell Lung, 48 h
SF-539 = assay: NCI anticancer screen, SF-539; format: cell-based, human; conditions: Homo sapiens; SF-539, CNS, 48 h
MDA-MB-435 = assay: NCI anticancer screen, MDA-MB-435; format: cell-based, human; conditions: Homo sapiens; MDA-MB-435, Breast, 48 h
HT29 = assay: NCI anticancer screen, HT29; format: cell-based, human; conditions: Homo sapiens, HT-29; HT29, Colon, 48 h
A498 = assay: NCI anticancer screen, A498; format: cell-based, human; conditions: Homo sapiens; A498, Renal, 48 h
MCF7 = assay: NCI anticancer screen, MCF7; format: cell-based, human; conditions: Homo sapiens; MCF7, Breast, 48 h
MOLT-4 = assay: NCI anticancer screen, MOLT-4; format: cell-based, human; conditions: Homo sapiens; MOLT-4, Leukemia, 48 h
SF-295 = assay: NCI anticancer screen, SF-295; format: cell-based, human; conditions: Homo sapiens; SF-295, CNS, 48 h
NCI-H226 = assay: NCI anticancer screen, NCI-H226; format: cell-based, human; conditions: Homo sapiens; NCI-H226, Non-Small Cell Lung, 48 h
SK-MEL-5 = assay: NCI anticancer screen, SK-MEL-5; format: cell-based, human; conditions: Homo sapiens; SK-MEL-5, Melanoma, 48 h
PC-3 = assay: NCI anticancer screen, PC-3; format: cell-based, human; conditions: Homo sapiens; PC-3, Prostate, 48 h
[1] = system: 60 different human cancer cell lines; assay: NCI in vitro anticancer screen (whole panel); format: cell-based; conditions: NCI screen, 48 h
786-0 = assay: NCI anticancer screen, 786-0; format: cell-based, human; conditions: Homo sapiens; 786-0, Renal, 48 h
OVCAR-8 = assay: NCI anticancer screen, OVCAR-8; format: cell-based, human; conditions: Homo sapiens; OVCAR-8, Ovarian, 48 h
SK-OV-3 = assay: NCI anticancer screen, SK-OV-3; format: cell-based, human; conditions: Homo sapiens; SK-OV-3, Ovarian, 48 h
NCI-H460 = assay: NCI anticancer screen, NCI-H460; format: cell-based, human; conditions: Homo sapiens; NCI-H460, Non-Small Cell Lung, 48 h
NCI-H322M = assay: NCI anticancer screen, NCI-H322M; format: cell-based, human; conditions: Homo sapiens, Non-Small Cell Lung, 48 h
SN12C = assay: NCI anticancer screen, SN12C; format: cell-based, human; conditions: Homo sapiens, 48 h, Renal
HL-60(TB) = assay: NCI anticancer screen, HL-60(TB); format: cell-based, human; conditions: Homo sapiens, Leukemia, 48 h
TK-10 = assay: NCI anticancer screen, TK-10; format: cell-based, human; conditions: Homo sapiens; TK-10, Renal, 48 h
OVCAR-5 = assay: NCI anticancer screen, OVCAR-5; format: cell-based, human; conditions: Homo sapiens; OVCAR-5, Ovarian, 48 h
SK-MEL-2 = assay: NCI anticancer screen, SK-MEL-2; format: cell-based, human; conditions: Homo sapiens; SK-MEL-2, Melanoma, 48 h
SR = assay: NCI anticancer screen, SR; format: cell-based, human; conditions: Homo sapiens, Leukemia, 48 h
SK-MEL-28 = assay: NCI anticancer screen, SK-MEL-28; format: cell-based, human; conditions: Homo sapiens; SK-MEL-28, Melanoma, 48 h
IGR-OV1 = assay: NCI anticancer screen, IGR-OV1; format: cell-based, human; conditions: Homo sapiens, IGROV-1; IGR-OV1, Ovarian, 48 h
UACC-257 = assay: NCI anticancer screen, UACC-257; format: cell-based, human; conditions: Homo sapiens; UACC-257, Melanoma, 48 h
HCT-15 = assay: NCI anticancer screen, HCT-15; format: cell-based, human; conditions: Homo sapiens; HCT-15, Colon, 48 h
UACC-62 = assay: NCI anticancer screen, UACC-62; format: cell-based, human; conditions: Homo sapiens; UACC-62, Melanoma, 48 h
SF-268 = assay: NCI anticancer screen, SF-268; format: cell-based, human; conditions: Homo sapiens; SF-268, CNS, 48 h
COLO 205 = assay: NCI anticancer screen, COLO 205; format: cell-based, human; conditions: Homo sapiens; COLO 205, Colon, 48 h
SNB-19 = assay: NCI anticancer screen, SNB-19; format: cell-based, human; conditions: Homo sapiens; SNB-19, CNS, 48 h
EKVX = assay: NCI anticancer screen, EKVX; format: cell-based, human; conditions: Homo sapiens, Non-Small Cell Lung, 48 h

With COc1cc(CNc2ccc(C(=O)OC(C)(C)C)cc2)cc(CN2CCN(c3ccccn3)CC2)c1O [Compound Q012145T] the GI50 (UO-31) was 67.2 µM, the GI50 (HCC-2998) was over 100 µM and the GI50 (A549/ATCC) was 84.3 µM. The GI50 (SF-539) was over 100 µM, the GI50 (MDA-MB-435) was 60.1 µM and the GI50 (HT29) was 12.7 µM. For the same compound, the GI50 (A498) was 16.2 µM, the GI50 (MCF7) was 21 µM and the GI50 (MOLT-4) was 13 µM. The GI50 (SF-295) was 69.9 µM, the GI50 (NCI-H226) was over 100 µM and the GI50 (SK-MEL-5) was 10.7 µM. For the same compound, the GI50 (PC-3) was 23.5 µM, the “growth and proliferation of human primary cancer cell-lines (in words)” value [1] was “inhibited growth and proliferation” and the GI50 (786-0) was 48.6 µM. The GI50 (OVCAR-8) was over 100 µM, the GI50 (SK-OV-3) was over 100 µM and the GI50 (NCI-H460) was 21.9 µM. The GI50 (NCI-H322M) was over 100 µM, the GI50 (SN12C) was over 100 µM and the GI50 (HL-60(TB)) was 12.4 µM. It also gave a GI50 (TK-10) of 70.4 µM, a GI50 (OVCAR-5) of over 100 µM and a GI50 (SK-MEL-2) of over 100 µM. The GI50 (SR) was 8.3 µM, the GI50 (SK-MEL-28) was over 100 µM and the GI50 (IGR-OV1) was over 100 µM. For the same compound, the GI50 (UACC-257) was 33 µM, the GI50 (HCT-15) was 46.4 µM and the GI50 (UACC-62) was 74.5 µM. The GI50 (SF-268) was 61.5 µM, the GI50 (COLO 205) was 24.8 µM and the GI50 (SNB-19) was over 100 µM. For the same compound, the GI50 (EKVX) was 51.5 µM.

CCOC(=O)[C@H](Cc1ccccc1)NCc1cc(CN2CCN(c3ccccn3)CC2)c(O)c(OC)c1 [Compound Q012147T] showed a GI50 (UO-31) of 94.1 µM, a GI50 (HCC-2998) of over 100 µM and a GI50 (A549/ATCC) of over 100 µM. For the same compound, the GI50 (SF-539) was 73.4 µM, the GI50 (MDA-MB-435) was 83.2 µM and the GI50 (HT29) was 43.2 µM. For the same compound, the GI50 (A498) was over 100 µM, the GI50 (MCF7) was 88.8 µM and the GI50 (MOLT-4) was 3.13 µM. It also gave a GI50 (SF-295) of over 100 µM, a GI50 (NCI-H226) of over 100 µM and a GI50 (SK-MEL-5) of 18.7 µM. The GI50 (PC-3) was 49.8 µM, the “growth and proliferation of human primary cancer cell-lines (in words)” value [1] was “inhibited growth and proliferation” and the GI50 (786-0) was 60.2 µM. The GI50 (OVCAR-8) was over 100 µM, the GI50 (SK-OV-3) was over 100 µM and the GI50 (NCI-H460) was 60.6 µM. For the same compound, the GI50 (NCI-H322M) was 49.4 µM, the GI50 (SN12C) was over 100 µM and the GI50 (HL-60(TB)) was 37.5 µM. For the same compound, the GI50 (TK-10) was 83 µM, the GI50 (OVCAR-5) was over 100 µM and the GI50 (SK-MEL-2) was over 100 µM. It also gave a GI50 (SR) of 0.32 µM, a GI50 (SK-MEL-28) of over 100 µM and a GI50 (IGR-OV1) of over 100 µM. It also gave a GI50 (UACC-257) of 67.3 µM, a GI50 (HCT-15) of 98.3 µM and a GI50 (UACC-62) of over 100 µM. The GI50 (SF-268) was over 100 µM, the GI50 (COLO 205) was over 100 µM and the GI50 (SNB-19) was over 100 µM. The GI50 (EKVX) was over 100 µM.
